Data: patent US6710075B2, “Therapeutic compounds and methods” (The Government of the State of Sarawak, Malaysia, priority 2000, dated 2004)

Tests used:
MDA-MB-231/ATCC = assay: NCI in vitro anticancer drug discovery screen (sulforhodamine B); assay type: cell-based; details: Homo sapiens, breast, 48 hr
Experimental: (§1) (c) Testing of Compound A against a much larger cell line panel in the NCI in vitro anticancer screen (Table 7) confirmed the results described above. […] Consistent with the data in Table 5 the cytotoxic effects measured after 2 days of culture were more varied with LC50 values ranging from 10 nM for COLO-205 colon tumour cells to ˜90 μM for 786-0 renal tumour cells.

M14 = assay: as above; assay type: cell-based; details: Homo sapiens, M14, melanoma, 48 hr
Experimental: as §1

IGROVI = assay: as above; assay type: cell-based; details: Homo sapiens, ovarian, 48 hr
Experimental: as §1

A498 = assay: as above; assay type: cell-based; details: Homo sapiens, A498, renal, 48 hr
Experimental: as §1

SK-MEL-2 = assay: as above; assay type: cell-based; details: Homo sapiens, SK-MEL-2, melanoma, 48 hr
Experimental: as §1

MDA-N = assay: as above; assay type: cell-based; details: Homo sapiens, breast, 48 hr
Experimental: as §1

MDA-MB-435 = assay: as above; assay type: cell-based; details: Homo sapiens, MDA-MB-435, breast, 48 hr
Experimental: as §1

BT-549 = assay: as above; assay type: cell-based; details: Homo sapiens, BT-549, breast, 48 hr
Experimental: as §1

OVCAR-8 = assay: as above; assay type: cell-based; details: Homo sapiens, OVCAR-8, ovarian, 48 hr
Experimental: as §1

SF-539 = assay: as above; assay type: cell-based; details: Homo sapiens, SF-539, brain, 48 hr
Experimental: as §1

EKVX = assay: as above; assay type: cell-based; details: Homo sapiens, lung, 48 hr
Experimental: as §1

NCI-11522 = assay: as above; assay type: cell-based; details: Homo sapiens, NCI-11522, lung, 48 hr
Experimental: as §1

8K-MEL-5 = assay: as above; assay type: cell-based; details: Homo sapiens, 8K-MEL-5, melanoma, 48 hr
Experimental: as §1

SK-OV-3 = assay: as above; assay type: cell-based; details: Homo sapiens, SK-OV-3, ovarian, 48 hr
Experimental: as §1

SF-268 = assay: as above; assay type: cell-based; details: Homo sapiens, SF-268, brain, 48 hr
Experimental: as §1

NCI-H460 = assay: as above; assay type: cell-based; details: Homo sapiens, NCI-H460, lung, 48 hr
Experimental: as §1

NCI-H226 = assay: as above; assay type: cell-based; details: Homo sapiens, NCI-H226, lung, 48 hr
Experimental: as §1

SK-MEL-28 = assay: as above; assay type: cell-based; details: Homo sapiens, SK-MEL-28, melanoma, 48 hr
Experimental: as §1

MALME-3M = assay: as above; assay type: cell-based; details: Homo sapiens, melanoma, 48 hr
Experimental: as §1

RXF 393 = assay: as above; assay type: cell-based; details: Homo sapiens, RXF 393, renal, 48 hr
Experimental: as §1

UACC-62 = assay: as above; assay type: cell-based; details: Homo sapiens, UACC-62, melanoma, 48 hr
Experimental: as §1

MCF7 = assay: as above; assay type: cell-based; details: Homo sapiens, MCF7, breast, 48 hr
Experimental: as §1

OVCAR-4 = assay: as above; assay type: cell-based; details: Homo sapiens, OVCAR-4, ovarian, 48 hr
Experimental: as §1

ACHN = assay: as above; assay type: cell-based; details: Homo sapiens, renal, 48 hr
Experimental: as §1

COLO-205 = assay: as above; assay type: cell-based; details: Homo sapiens, COLO-205, colon, 48 hr
Experimental: as §1

LOX IMV1 = assay: as above; assay type: cell-based; details: Homo sapiens, LOX IMV1, melanoma, 48 hr
Experimental: as §1

SNB-75 = assay: as above; assay type: cell-based; details: Homo sapiens, SNB-75, brain, 48 hr
Experimental: as §1

A549 cells = assay: DNA content analysis (cell cycle and viability) of A549 cells, 6 days; assay type: cell-based, human; details: A549, 10 nM
Experimental: A549 cells were cultured for 6 days with the indicated concentration of Compound A or 1 μM paclitaxel then collected and fixed in 70% ethanol prior to staining with propidium iodide and DNA content determined by flow cytometry. The numbers indicate the % of cells in the various cell cycle phases relative to all cells with ≧2N DNA content and also the % dead cells (ie. subdiploid≦2N cells) to the left of the marker that arose during the culture period.
To help identify a potential mechanism for the effects of Compound A, DNA content analysis was performed to determine where in the cell cycle it exerted its effect (FIG. 4). […] This contrasts to the effects of paclitaxel a drug known to act selectively at the G2/M phases of the cell cycle (FIG. 4). As the concentration of Compound A was increased and its cytotoxic effects became evident the proportion of cells in the S and G2/M phases decreased with a corresponding rise in cells in G0/G1 phases. […] Thus, compared to THP-1 cells (see FIG. 2) higher concentrations of Compound A are required to inhibit progression through the G0/G1 phases of the cell cycle in A549 cells.

[1] = read-out: LC50 (the source's name)

## COC(=O)[C@H]1[C@@H](O)[C@@]2(O)c3c(OC)cc(OC4OC(C(O)CO)COC4OC)cc3O[C@@]2(c2ccc(OC)cc2)[C@@H]1c1ccccc1 (single isomer, unassigned) [Compound A]
MDA-MB-231/ATCC
  GI50: < 10 nM
MDA-MB-231/ATCC; [1]
  CC50: 25400 nM
M14
  GI50: < 10 nM
M14; [1]
  CC50: 51 nM
IGROVI
  GI50: < 10 nM
IGROVI; [1]
  CC50: 2600 nM
A498
  GI50: < 10 nM
A498; [1]
  CC50: 18600 nM
SK-MEL-2
  GI50: < 10 nM
SK-MEL-2; [1]
  CC50: 19100 nM
MDA-N
  GI50: < 10 nM
MDA-N; [1]
  CC50: 543 nM
MDA-MB-435
  GI50: < 10 nM
MDA-MB-435; [1]
  CC50: 45 nM
BT-549
  GI50: < 10 nM
BT-549; [1]
  CC50: 32700 nM
OVCAR-8
  GI50: < 10 nM
OVCAR-8; [1]
  CC50: 21900 nM
SF-539
  GI50: < 10 nM
SF-539; [1]
  CC50: 1100 nM
EKVX
  GI50: < 10 nM
EKVX; [1]
  CC50: 23 nM
NCI-11522
  GI50: < 10 nM
NCI-11522; [1]
  CC50: 2400 nM
8K-MEL-5
  GI50: < 10 nM
8K-MEL-5; [1]
  CC50: 67 nM
SK-OV-3
  GI50: < 10 nM
SK-OV-3; [1]
  CC50: 82200 nM
SF-268
  GI50: < 10 nM
SF-268; [1]
  CC50: 1000 nM
NCI-H460
  GI50: < 10 nM
NCI-H460; [1]
  CC50: 38000 nM
NCI-H226
  GI50: < 10 nM
NCI-H226; [1]
  CC50: 193 nM
SK-MEL-28
  GI50: < 10 nM
SK-MEL-28; [1]
  CC50: 2660 nM
MALME-3M
  GI50: < 10 nM
MALME-3M; [1]
  CC50: 24000 nM
RXF 393
  GI50: < 10 nM
RXF 393; [1]
  CC50: 1640 nM
UACC-62
  GI50: < 10 nM
UACC-62; [1]
  CC50: 30 nM
MCF7
  GI50: < 10 nM
MCF7; [1]
  CC50: 1000 nM
OVCAR-4
  GI50: < 10 nM
OVCAR-4; [1]
  CC50: 11 nM
ACHN
  GI50: < 10 nM
ACHN; [1]
  CC50: 31600 nM
COLO-205
  GI50: < 10 nM
COLO-205; [1]
  CC50: 10 nM
LOX IMV1
  GI50: < 10 nM
LOX IMV1; [1]
  CC50: 1000 nM
SNB-75
  GI50: < 10 nM
SNB-75; [1]
  CC50: 54 nM
A549 cells
  cell cycle distribution: a minor decline in the proportion of cells in the G0/G1 phases of the cell cycle with a concomitant increase in cells in the G2/M phases
